Here are results for one molecule from publication PMC9917099, “The Mycotoxin Patulin Inhibits the Mitochondrial Carnitine/Acylcarnitine Carrier (SLC25A20) by Interaction with Cys136 Implications for Human Health” (International Journal of Molecular Sciences, 2023).

Each structure is given as a SMILES string.

This assay addresses T1, CAC in intact rat liver mitochondria (Rattus norvegicus, UniProt P97521).
T1 construct: the native protein extracted from rat liver mitochondria; from tissue; host or cells: rat liver mitochondria (Triton X-100 extract)
T1 sequence (P97521 1-301): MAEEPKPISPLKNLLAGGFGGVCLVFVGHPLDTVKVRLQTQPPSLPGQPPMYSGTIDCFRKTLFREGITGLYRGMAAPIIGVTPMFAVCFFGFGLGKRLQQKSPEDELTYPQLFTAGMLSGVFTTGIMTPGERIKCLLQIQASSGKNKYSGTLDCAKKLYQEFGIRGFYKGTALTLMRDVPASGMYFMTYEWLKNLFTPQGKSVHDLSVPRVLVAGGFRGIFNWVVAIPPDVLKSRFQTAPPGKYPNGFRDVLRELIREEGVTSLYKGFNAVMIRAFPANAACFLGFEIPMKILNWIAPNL
As to the kind of experiment: Treatment of intact rat liver mitochondria, then solubilization, reconstitution in proteoliposomes and carnitine antiport assay. In kind it is biochemical. As to conditions: GSH alone, 5 mM, 60 min, intact mitochondria. The procedure: Figure 1 Effect of Patulin on the native carnitine/acylcarnitine carrier (CAC). (A) Dose-response analysis of proteoliposomes reconstituted with the CAC extracted from rat liver mitochondria (0.3 mg of total proteins) and incubated with PAT at the indicated concentrations for 30 min, before measuring the transport activity by adding 0.1 mM [^3H] carnitine for 10 min as described in Materials and Methods. The percentage of residual activity compared to control, without PAT treatment, is reported. The values are the means ± SD from three independent experiments. (B) Rat liver mitochondria (5 mg/100 μL) were incubated or not (control) for 60 min, with Patulin (60 μM) or GSH (5 mM) as indicated. Upon treatment, the unreacted drug was removed by washing the mitochondria in PBS 1X and then 0.3 mg mitochondria were solubilized by 3% TX-100, 10 mM PIPES pH 7.0 and reconstituted in proteoliposomes for transport assay as indicated in (A) and Materials and Methods. Black and white bars indicate without or with the addition of 5 mM dithioerythritol (DTE) 1 min before the transport assay to aliquots of each sample.
The effect of PAT on the CAC at 60 µM concentration was also detected in intact rat liver mitochondria. Upon treatment (60 min), the mitochondria were solubilized in Triton X-100 and 0.3 mg of mitochondrial extract were reconstituted in proteoliposomes for testing the transport activity of CAC (see above). […] Aliquots of intact mitochondria incubated with PAT were treated also with reduced GSH to verify whether this physiological SH-reducing agent was able to reverse the mycotoxin-protein interactions.
The recombinant CAC proteins were reconstituted in proteoliposomes as previously described. Rat liver mitochondria after purification, using the standard procedure of cell disruption and differential centrifugation were solubilized with 3% Triton X-100 in a PIPES buffer (10 mM) at pH 7.0. Herein, the mitochondrial extract (0.3 mg) were reconstituted in the liposomes as above described for the mitochondrial CAC recombinant protein, in the absence of reducing agents. The concentration of intraliposomal carnitine was 15 mM in all samples.
For the transport assay, 550 μL of proteoliposomes were passed through a Sephadex G-75 column in order to remove the external substrate. Six hundred μL of the turbid eluate were collected, divided into samples of 100 μL each, and used for transport measurement by the inhibitor-stop method. Transport was started as homoexchange by adding 0.1 mM [^3H]-carnitine to proteoliposomes containing 15 mM carnitine and, at the indicated time interval, stopped by 1.5 mM NEM (N-ethylmaleimide). The inhibitor was added together with the labelled substrate at time zero in the control samples. After finishing the transport reaction, the external radiolabel substrate was removed by gel filtration chromatography (Sephadex G-75), and the intraliposomal radioactivity was measured by liquid scintillation. Transport was measured at 25 °C. The experimental values were corrected by subtracting the controls. Transport rates were measured in 10 min, i.e., within the initial linear range of the time course.

Consider `N[C@@H](CCC(=O)N[C@@H](CS)C(=O)NCC(=O)O)C(=O)O` [GSH, glutathione, reference compound], for which the “transport activity compared to control” value was “moderate increase”.
